In this test the target is truncated Polθ protein (Polθ-Hel containing the helicase domain (67-894)) (Homo sapiens (Human), UniProt O75417). Put plainly: Polθ ATPase assay (Biological Assay 1, ADP-Glo luminescence). The following applies: Polθ-Hel 0.5 nM, DNA substrate 500 nM, ATP 60 μM, 23° C.; read-out: Pole ATPase assay IC50. The format is biochemical. On the procedure:
The Polθ ATPase assay was used to evaluate inhibitors of Polθ ATPase activity, in vitro. Experiments were performed using a truncated Polθ protein (Polθ-Hel containing the helicase domain (67-894), ATP and a DNA single strand Oligo (5′-CTGTCCTGCATGATG-3′) in the Polθ assay buffer (20 mM Tis-HCl (pH 8.8), MgCl2 5 mM, tween20 0.01%, NP40 0.01%, BSA 0.01%, DTT 1 mM). 2 μL of assay buffer containing Pole-Hel protein (0.5 nM) and DNA substrate (500 nM) was transferred into assay ready plates, containing 0.04 μL of compounds diluted in DMSO. After a 30 minutes incubation at 23° C. in the dark, the reaction was triggered by adding 2 μL of ATP (60 μM), in assay buffer. After 60 minutes at 23° C., 4 μl of ADP-Glo™ Reagent (Glo 1) was added followed by 40 minutes of incubation, then 8 μl of ADP-Glom kinase Detection Reagent (Glo 2) followed by 60 minutes of incubation at 23° C. Luminescence was then measured using Tecan F200 infinite plate reader. Raw data were analysed using GeneData to generate IC50 values.
The Polθ ATPase assay described in Biological Assay 1 above was used to evaluate inhibitors of Polθ ATPase activity for the compounds described in the Experimental Part B above, in vitro.

A word on the IC50: it is the concentration that gives 50% inhibition.

truncated Polθ protein (Polθ-Hel containing the helicase domain (67-894)), sequence (O75417 67-894): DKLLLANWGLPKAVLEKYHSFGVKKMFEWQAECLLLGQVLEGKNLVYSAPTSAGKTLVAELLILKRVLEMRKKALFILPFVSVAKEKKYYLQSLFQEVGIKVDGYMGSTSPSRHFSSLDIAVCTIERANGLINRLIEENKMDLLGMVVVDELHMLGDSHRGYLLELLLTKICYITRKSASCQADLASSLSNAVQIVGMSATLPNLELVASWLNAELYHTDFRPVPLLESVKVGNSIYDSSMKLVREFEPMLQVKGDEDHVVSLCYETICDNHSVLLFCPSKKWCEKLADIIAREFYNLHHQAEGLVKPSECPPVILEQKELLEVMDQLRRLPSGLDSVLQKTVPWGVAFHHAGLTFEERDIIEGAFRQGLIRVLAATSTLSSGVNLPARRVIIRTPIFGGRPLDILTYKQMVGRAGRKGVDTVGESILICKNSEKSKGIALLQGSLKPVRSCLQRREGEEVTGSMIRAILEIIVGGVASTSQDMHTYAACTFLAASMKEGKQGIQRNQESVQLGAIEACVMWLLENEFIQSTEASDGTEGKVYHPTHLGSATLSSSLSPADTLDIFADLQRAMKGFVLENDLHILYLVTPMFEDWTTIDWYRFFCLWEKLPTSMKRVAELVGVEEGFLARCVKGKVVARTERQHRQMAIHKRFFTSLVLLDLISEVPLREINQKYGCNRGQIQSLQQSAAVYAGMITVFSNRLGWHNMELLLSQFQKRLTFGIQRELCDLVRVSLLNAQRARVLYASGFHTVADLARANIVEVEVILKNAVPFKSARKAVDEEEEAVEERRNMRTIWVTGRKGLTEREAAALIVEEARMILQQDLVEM

As for `COc1cnc(Cl)cc1-c1cc(C)ncc1C(=O)Nc1nc2cnc(N[C@@H]3CC[C@H](O)C3)nc2s1` (racemic) [Example 49, rac-2′-chloro-N-(5-{[(1R,3S)-3-hydroxycyclopentyl]amino}-[1,3]thiazolo[5,4-d]pyrimidin-2-yl)-5′-methoxy-6-methyl-[4,4′-bipyridine]-3-carboxamide], the IC50 is less than 100 nM. For `COc1cnc(Cl)cc1-c1cc(C)ncc1C(=O)Nc1nc2ccc(Cl)cc2s1` [Example 1, N-(6-chloro-1,3-benzothiazol-2-yl)-4-(2-chloro-5-methoxy-4-pyridyl)-6-methyl-pyridine-3-carboxamide], the IC50 is less than 100 nM. For the compound `COc1cnc(Cl)cc1-c1cc(C)ncc1C(=O)Nc1nc2ccc(S(C)(=O)=O)cc2s1` [Example 2, 2′-chloro-N-(6-methanesulfonyl-1,3-benzothiazol-2-yl)-5′-methoxy-6-methyl-[4,4′-bipyridine]-3-carboxamide], the IC50 was less than 100 nM. As for `COc1cnc(Cl)cc1-c1cc(C)ncc1C(=O)Nc1nc2ccc(C#N)cc2s1` [Example 3, 2′-chloro-N-(6-cyano-1,3-benzothiazol-2-yl)-5′-methoxy-6-methyl-[4,4′-bipyridine]-3-carboxamide], the IC50 was less than 100 nM. Under `COc1cnc(Cl)cc1-c1cc(C)ncc1C(=O)Nc1nc2ccc(Br)cc2s1` [Example 5, N-(6-bromo-1,3-benzothiazol-2-yl)-2′-chloro-5′-methoxy-6-methyl-[4,4′-bipyridine]-3-carboxamide] stands less than 100 nM; under `COc1cnc(Cl)cc1-c1cc(C)ncc1C(=O)Nc1nc2cnc(Cl)nc2s1` [Example 6, 2′-chloro-N-{5-chloro-[1,3]thiazolo[5,4-d]pyrimidin-2-yl}-5′-methoxy-6-methyl-[4,4′-bipyridine]-3-carboxamide], less than 100 nM.

As to `COc1cnc(Cl)cc1-c1cc(C)ncc1C(=O)Nc1nc2ccc(Cl)nc2s1` [Example 7, 2′-chloro-N-{5-chloro-[1,3]thiazolo[5,4-b]pyridin-2-yl}-5′-methoxy-6-methyl-[4,4′-bipyridine]-3-carboxamide], the IC50 was less than 100 nM. Take `COc1ccccc1-c1cnccc1C(=O)Nc1nc2cncnc2s1` [Example 8, 3-(2-methoxyphenyl)-N-{[1,3]thiazolo[5,4-d]pyrimidin-2-yl}pyridine-4-carboxamide]: the IC50 was in the range of 100 to 1000 nM. For `COc1ccccc1-c1cnccc1C(=O)Nc1nc2ccc(Br)cc2s1` [Example 9, N-(6-bromo-1,3-benzothiazol-2-yl)-3-(2-methoxyphenyl)pyridine-4-carboxamide], the IC50 lay within 100 to 1000 nM. `COc1ccccc1-c1cnccc1C(=O)Nc1nc2cnccc2s1` [Example 10, 3-(2-methoxyphenyl)-N-{[1,3]thiazolo[4,5-c]pyridin-2-yl}pyridine-4-carboxamide]: the IC50 is greater than 1000 nM.

Turning to `COc1ccccc1-c1cnccc1C(=O)Nc1nc2ncccc2s1` [Example 11, 3-(2-methoxyphenyl)-N-{[1,3]thiazolo[4,5-b]pyridin-2-yl}pyridine-4-carboxamide], the IC50 was greater than 1000 nM. Take `COc1ccccc1-c1cnccc1C(=O)Nc1nc2cc(C(F)(F)F)ccc2s1` [Example 12, 3-(2-methoxyphenyl)-N-[5-(trifluoromethyl)-1,3-benzothiazol-2-yl]pyridine-4-carboxamide]: the IC50 was greater than 1000 nM. Next, `COc1ccccc1-c1cnccc1C(=O)Nc1nc2cc(Cl)ccc2s1` [Example 13, N-(5-chloro-1,3-benzothiazol-2-yl)-3-(2-methoxyphenyl)pyridine-4-carboxamide]: greater than 1000 nM. `COc1ccccc1-c1cnccc1C(=O)Nc1nc2cccnc2s1` [Example 14, 3-(2-methoxyphenyl)-N-{[1,3]thiazolo[5,4-b]pyridin-2-yl}pyridine-4-carboxamide]: the IC50 was greater than 1000 nM. Next, `COc1cnc(Cl)cc1-c1cc(C)ncc1C(=O)Nc1nc2ccc(N3CCOCC3)cc2s1` [Example 17, 2′-chloro-5′-methoxy-6-methyl-N-[6-(morpholin-4-yl)-1,3-benzothiazol-2-yl]-[4,4′-bipyridine]-3-carboxamide]: less than 100 nM. Next, `COc1cnc(Cl)cc1-c1cc(C)ncc1C(=O)Nc1nc2cnc(N3CCCCC3)nc2s1` [Example 20, 2′-chloro-5′-methoxy-6-methyl-N-[5-(piperidin-1-yl)-[1,3]thiazolo[5,4-d]pyrimidin-2-yl]-[4,4′-bipyridine]-3-carboxamide]: less than 100 nM.

As for `COc1cnc(Cl)cc1-c1cc(C)ncc1C(=O)Nc1nc2cnc(N3CCC(F)(F)CC3)nc2s1` [Example 21, 2′-chloro-N-[5-(4,4-difluoropiperidin-1-yl)-[1,3]thiazolo[5,4-d]pyrimidin-2-yl]-5′-methoxy-6-methyl-[4,4′-bipyridine]-3-carboxamide], the IC50 was less than 100 nM. Next, `COc1cnc(Cl)cc1-c1cc(C)ncc1C(=O)Nc1nc2cnc(N3CCOCC3)nc2s1` [Example 22, 2′-chloro-5′-methoxy-6-methyl-N-[5-(morpholin-4-yl)-[1,3]thiazolo[5,4-d]pyrimidin-2-yl]-[4,4′-bipyridine]-3-carboxamide]: less than 100 nM. Take `COc1cnc(Cl)cc1-c1cc(C)ncc1C(=O)Nc1nc2cnc(N3CC[C@H](O)C3)nc2s1` [Example 23, 2′-chloro-N-{5-[(3S)-3-hydroxypyrrolidin-1-yl]-[1,3]thiazolo[5,4-d]pyrimidin-2-yl}-5′-methoxy-6-methyl-[4,4′-bipyridine]-3-carboxamide]: the IC50 was less than 100 nM. Take `COc1cnc(Cl)cc1-c1cc(C)ncc1C(=O)Nc1nc2cnc(N3CCCC3)nc2s1` [Example 24, 2′-chloro-5′-methoxy-6-methyl-N-[5-(pyrrolidin-1-yl)-[1,3]thiazolo[5,4-d]pyrimidin-2-yl]-[4,4′-bipyridine]-3-carboxamide]: the IC50 was less than 100 nM. Regarding `COc1cnc(Cl)cc1-c1cc(C)ncc1C(=O)Nc1nc2cnc(N3CCC(F)(F)C3)nc2s1` [Example 25, 2′-chloro-N-[5-(3,3-difluoropyrrolidin-1-yl)-[1,3]thiazolo[5,4-d]pyrimidin-2-yl]-5′-methoxy-6-methyl-[4,4′-bipyridine]-3-carboxamide], the IC50 was less than 100 nM. With `COc1cnc(Cl)cc1-c1cc(C)ncc1C(=O)Nc1nc2cnc(N3CC[C@@H](O)C3)nc2s1` [Example 26, 2′-chloro-N-{5-[(3R)-3-hydroxypyrrolidin-1-yl]-[1,3]thiazolo[5,4-d]pyrimidin-2-yl}-5′-methoxy-6-methyl-[4,4′-bipyridine]-3-carboxamide], the IC50 was less than 100 nM. Turning to `COc1cnc(Cl)cc1-c1cc(C)ncc1C(=O)Nc1nc2cnc(N3CCS(=O)(=O)CC3)nc2s1` [Example 27, 2′-chloro-N-[5-(1,1-dioxo-1λ^6-thiomorpholin-4-yl)-[1,3]thiazolo[5,4-d]pyrimidin-2-yl]-5′-methoxy-6-methyl-[4,4′-bipyridine]-3-carboxamide], the IC50 is less than 100 nM. `COc1cnc(Cl)cc1-c1cc(C)ncc1C(=O)Nc1nc2cnc(N3CCN(C)CC3)nc2s1` [Example 28, 2′-chloro-5′-methoxy-6-methyl-N-[5-(4-methylpiperazin-1-yl)-[1,3]thiazolo[5,4-d]pyrimidin-2-yl]-[4,4′-bipyridine]-3-carboxamide]: the IC50 is less than 100 nM.

Consider `COc1cnc(Cl)cc1-c1cc(C)ncc1C(=O)Nc1nc2cnc(N3CC4(COC4)C3)nc2s1` [Example 29, 2′-chloro-5′-methoxy-6-methyl-N-(5-{2-oxa-6-azaspiro[3.3]heptan-6-yl}-[1,3]thiazolo[5,4-d]pyrimidin-2-yl)-[4,4′'-bipyridine]-3-carboxamide], for which the IC50 is less than 100 nM. Turning to `COCCNc1ncc2nc(NC(=O)c3cnc(C)cc3-c3cc(Cl)ncc3OC)sc2n1` [Example 30, 2′-chloro-5′-methoxy-N-{5-[(2-methoxyethyl)amino]-[1,3]thiazolo[5,4-d]pyrimidin-2-yl}-6-methyl-[4,4′-bipyridine]-3-carboxamide], the IC50 was less than 100 nM. Under `COc1cnc(Cl)cc1-c1cc(C)ncc1C(=O)Nc1nc2cnc(N3CC(O)C3)nc2s1` [Example 31, 2′-chloro-N-[5-(3-hydroxyazetidin-1-yl)-[1,3]thiazolo[5,4-d]pyrimidin-2-yl]-5′-methoxy-6-methyl-[4,4′-bipyridine]-3-carboxamide] stands less than 100 nM; under `COc1cnc(Cl)cc1-c1cc(C)ncc1C(=O)Nc1nc2cnc(N3CCC(OC)C3)nc2s1` (centres unmarked) [Example 32, 2′-chloro-5′-methoxy-N-[5-(3-methoxypyrrolidin-1-yl)-[1,3]thiazolo[5,4-d]pyrimidin-2-yl]-6-methyl-[4,4′-bipyridine]-3-carboxamide], less than 100 nM. For `COc1cnc(Cl)cc1-c1cc(C)ncc1C(=O)Nc1nc2cnc(N3CCC(O)CC3)nc2s1` [Example 33, 2′-chloro-N-[5-(4-hydroxypiperidin-1-yl)-[1,3]thiazolo[5,4-d]pyrimidin-2-yl]-5′-methoxy-6-methyl-[4,4′-bipyridine]-3-carboxamide], the IC50 is less than 100 nM.

The record behind these values is US20240327430A1 (Breakpoint Therapeutics GmbH, priority 2023, published 2024).
